In data set [1] the test system is human H460 non-small cell lung carcinoma cells. The data set is described as follows: H460 non-small cell lung carcinoma xenograft tumor growth in CD-1 nude mice. It counts as in vivo. Conditions: 28 days, 7 treatments once every 4 days, Pemetrexed i.p. 200 mg/kg, Lucanthone oral 80 mg/kg. The procedure: (§1) Methods: Groups of CD-1 nude mice were xenografted subcutaneously with human H460 non-small cell lung carcinoma cells. Treatments were initiated when tumor growth reached approximately 130 mm^3. Treatments were administered 7 times at frequency of once every 4 days and included vehicles, Pemetrexed given intraperitoneally at 200 mg/kg, Lucanthone given orally at 80 mg/kg, and the combinations of Pemetrexed and Lucanthone at the same doses. The tumor growths and body weight change were followed for 28 days.

Data set [2] can be described thus: Body weight change in the H460 xenograft study. The format is in vivo, CD-1 nude mice. Conditions: 28-day period; Pemetrexed i.p. 200 mg/kg, Lucanthone oral 80 mg/kg, once every 4 days x7; vehicles −2.9%. The procedure:
as §1

The values that follow come from patent publication US20090221615A1, “COMBINATION ANTI-CANCER AGENTS” (priority 2008, published 2009).

As for `Nc1nc2[nH]cc(CCc3ccc(C(=O)N[C@@H](CCC(=O)O)C(=O)O)cc3)c2c(=O)[nH]1` [Pemetrexed, N-[4-[2-(2-amino-4,7-dihydro-4-oxo-1H-pyrrolo[2,3-d]pyrimidin-5-yl)ethyl]-benzoyl]-L-glutamic acid], in data set [1], the “growth inhibition compared to the vehicle-treated group” value is 33%. In data set [1] (vehicles 42), the “fold of increases of the tumor volume” value was found to be 28 fold. Also, the “body weight changes excluding the tumor weights” value in data set [2] was −0.9%.
